Series [1] is described as follows: Antiinflammatory activity in […] BV2 cells assessed as inhibition of lipopolysaccharide-induced nitric oxide production at 5 uM incubated for 24 hrs by Griess reagent based assay (reference value: 20.3 +/- 0.1 uM). The series is classed as functional, BV-2.
Series [2] can be described thus: Antiinflammatory activity in […] BV2 cells assessed as inhibition of lipopolysaccharide-induced nitric oxide production at 20 uM incubated for 24 hrs by Griess reagent based assay (reference value: 20.3 +/- 0.1 uM). The series is classed as functional, BV-2. For orientation: Nitrite, measured by Griess reagent, commonly stands in for NO production.
A short description of series [3]: Cytotoxic activity against […] BV2 cells assessed as cell viability at 5 uM incubated for 24 hrs by MTT assay (reference value: 100%). The series is classed as cell-based, BV-2. Conditions: read-out: Activity.
Series [4] in a line: Cytotoxic activity against […] BV2 cells assessed as cell viability at 20 uM incubated for 24 hrs by MTT assay (reference value: 100%). The series is classed as cell-based, BV-2. Conditions: mouse, read-out: Activity. For orientation: Tetrazolium assays rely on reduction of a dye to a coloured formazan, in cell work by metabolically active cells.

Turning to `C=C1C[C@@H](O)[C@@H]2[C@H](OC(=O)[C@H]2C)[C@H]2C(C)=C(O[C@@H]3O[C@H](CO)[C@@H](O)[C@H](O)[C@H]3O)C[C@@H]12`, the Activity in series [1] is 19.9 µM; in series [2] it was 17.2 µM. The viability at 24 h, 5 µM in series [3] worked out at 108%. The viability at 24 h, 20 µM in series [4] worked out at 108%.

Regarding `C=C1C[C@@H](O)[C@@H]2[C@H](OC(=O)[C@H]2C)[C@H]2[C@H](C)[C@@H](O[C@@H]3O[C@H](CO)[C@@H](O)[C@H](O)[C@H]3O)C[C@@H]12`, the results for the Activity in series [1] and in series [2] were 19.6 µM and 19.4 µM, respectively. Further, the viability at 24 h, 5 µM in series [3] was determined as 103%. Besides, in series [4], the viability at 24 h, 20 µM was 103%.

Consider `C=C1[C@@H]2[C@H]3OC(=O)[C@@H](C)[C@@H]3C[C@@H](O)C(=C)[C@@H]2C[C@@H]1O[C@@H]1O[C@H](CO)[C@@H](O)[C@H](O)[C@H]1O`, for which the Activity was 18.6 µM in series [1] and 17.5 µM in series [2]. Besides, in series [3], the viability at 24 h, 5 µM stood at 102%. Besides, in series [4], the viability at 24 h, 20 µM was found to be 114%.

Turning to `CC1=C2[C@H]3OC(=O)[C@@H](C)[C@@H]3CC[C@@]2(C)[C@H](O)CC1`, the Activity in series [1] was 17.9 µM; in series [2], 17.7 µM. Further, the viability at 24 h, 5 µM in series [3] came to 110%. Moreover, in series [4], the viability at 24 h, 20 µM is 110%.

In the case of `C=C1C(=O)O[C@@H]2[C@H]3C(C)=C(O[C@@H]4O[C@H](CO)[C@@H](O)[C@H](O)[C@H]4O)C[C@H]3C(=C)C[C@@H](OC(=O)Cc3ccc(O)cc3)[C@@H]12`, the Activity was found to be 18.2 µM in series [1] and 9.3 µM in series [2]. The viability at 24 h, 5 µM in series [3] was 106%. The viability at 24 h, 20 µM in series [4] was 103%.

Regarding `C=C1C(=O)O[C@@H]2[C@H]3C(=C)[C@@H](O[C@@H]4O[C@H](CO)[C@@H](O)[C@H](O)[C@H]4O)C[C@H]3C(=C)C[C@@H](OC(=O)Cc3ccc(O)cc3)[C@@H]12`, the Activity in series [1] stood at 20.3 µM; in series [2], 16.3 µM. Besides, in series [3], the viability at 24 h, 5 µM turned out to be 106%. Moreover, the viability at 24 h, 20 µM in series [4] was 109%.

For the compound `C=C1[C@@H]2[C@H]3OC(=O)[C@@H](C)[C@@H]3CCC(=C)[C@@H]2C[C@@H]1O[C@@H]1O[C@H](CO)[C@@H](O)[C@H](O)[C@H]1O`, the Activity in series [1] was 19.9 µM; in series [2], 18.2 µM. For the same compound, the viability at 24 h, 5 µM in series [3] was 116%. In series [4], the viability at 24 h, 20 µM was 116%.

In the case of `C=C1C(=O)O[C@@H]2[C@H]3C(=C)[C@@H](O[C@@H]4O[C@H](CO)[C@@H](O)[C@H](O)[C@H]4O)C[C@H]3C(=C)C[C@@H](O)[C@@H]12`, the Activity in series [1] turned out to be 19.8 µM; in series [2] it was 17.6 µM. Besides, in series [3], the viability at 24 h, 5 µM amounted to 104%. Further, in series [4], the viability at 24 h, 20 µM stood at 103%.

As to `C/C1=C\CC/C(CO[C@@H]2O[C@H](CO)[C@@H](O)[C@H](O)[C@H]2O)=C/[C@H]2OC(=O)[C@@H](C)[C@@H]2CC1`, the Activity in series [1] was determined as 19.6 µM; in series [2], 18.8 µM. Further, in series [3], the viability at 24 h, 5 µM worked out at 113%. For the same compound, in series [4], the viability at 24 h, 20 µM amounted to 107%.

Take `CNC(=N)NCCC[C@H](N)C(=O)O` [TILARGININE]: the Activity in series [1] came to 20.1 µM; in series [2] it was 14.1 µM. Also, the viability at 24 h, 5 µM in series [3] was 112%. Besides, the viability at 24 h, 20 µM in series [4] came out at 108%.

Regarding `C=C1[C@@H]2[C@H]3OC(=O)[C@@H](C)[C@@H]3[C@H](O)CC(=C)[C@@H]2C[C@@H]1O[C@@H]1O[C@H](CO)[C@@H](O)[C@H](O)[C@H]1O`, the results for the Activity in series [1] and in series [2] were 20.4 µM and 18 µM, respectively. The viability at 24 h, 5 µM in series [3] was found to be 106%. The viability at 24 h, 20 µM in series [4] turned out to be 105%.

Turning to `C=C1C(=O)O[C@@H]2[C@H]3C(=C)[C@@H](O[C@@H]4O[C@H](CO)[C@@H](O)[C@H](O)[C@H]4O)C[C@H]3C(=C)C[C@@H](OC(=O)C(O)C(C)C)[C@@H]12` (stereo not given in full), the Activity in series [1] came out at 21.5 µM; in series [2] it was 18.2 µM. The viability at 24 h, 5 µM in series [3] is 105%. In series [4], the viability at 24 h, 20 µM was found to be 97.5%.

As to `C=C1[C@@H]2[C@H]3OC(=O)C(=C)[C@@H]3C[C@@H](O)C(=C)[C@@H]2C[C@@H]1O[C@@H]1O[C@H](CO)[C@@H](O)[C@H](O)[C@H]1O`, the Activity in series [1] came to 19.7 µM; in series [2], 18.7 µM. Further, the viability at 24 h, 5 µM in series [3] is 110%. The viability at 24 h, 20 µM in series [4] was found to be 110%.

`C=C1C(=O)O[C@@H]2/C=C(\CO[C@@H]3O[C@H](CO)[C@@H](O)[C@H](O)[C@H]3O)CC/C=C(\C)CC[C@@H]12`: the Activity in series [1] was determined as 20.1 µM; in series [2], 18 µM. Further, the viability at 24 h, 5 µM in series [3] was determined as 105%. Further, in series [4], the viability at 24 h, 20 µM was 103%.

In the case of `CC1=CC[C@@H](O[C@@H]2O[C@H](CO)[C@@H](O)[C@H](O)[C@H]2O)[C@]2(C)CC[C@@H]3[C@H](OC(=O)[C@H]3C)[C@@H]12`, the results for the Activity in series [1] and in series [2] were 18.9 µM and 18.4 µM, respectively. In addition, in series [3], the viability at 24 h, 5 µM is 107%. Further, the viability at 24 h, 20 µM in series [4] worked out at 112%.
